According to patent publication US20090099218A1, “SYNTHESIS OF NOVEL TUBULIN POLYMERIZATION INHIBITORS: BENZOYLPHENYLUREA (BPU) SULFUR ANALOGS” (priority 2007, published 2009):

Key:
[1] = test system: Panc1005; assay: MTT growth inhibition, pancreatic cell line Panc1005; format: cell-based; details: MTT assay, 96 h treatment, average of three independent experiments
Procedure: (§1) Eight of these analogs 6d, 6h, 6n, 6g, 7b, 7d, 8g, and 8h were tested for their cytotoxicity in seven pancreatic cell lines ASPC1, Panc1, Panc203, Panc430, Pane 1005, MiaPaca2, and HS766T using MTT assay. Cells were trypsinized, seeded at 5×10^3 cells/well in 96-well plate and allowed to grow for 24 hours before the treatment with exponential increasing concentrations of drugs in the presence of 10% FBS. After a 96-hours period of treatment, 20 μl of MTT solution (5 mg/ml in PBS) were added to each well, and the plates were then incubated for 3 hours at 37° C. Medium was then replaced with 100 μl of DMSO per well. Plates were shaken and the optical density was measured at 570 nm using a multiwell plate reader (Bio-Rad, Model 550, Bio-Rad Inc., Hercules, Calif.). Each experiment was performed in triplicate for each drug concentration and was carried out independently at least 3 times. The IC50 value was defined as the concentration needed for a 50% reduction in the absorbance calculated based on the survival curves. Response to drug treatment was assessed by standardizing treatment groups to untreated controls. Compounds activity was compared with compound 1.
(§2) Table 2 (Growth Inhibition of Pancreatic Cancer Cell Lines by BPU and BPTU Analogues (IC50) a) compares the cytotoxicity of a series of new derivatives against a panel of seven pancreatic cancer cell lines, as determined by MTT assay. See, Mosmann, T., J. Immunol. Methods 65:55-63 (1983).

[2] = test system: LnCaP; assay: MTT growth inhibition, prostate cancer cell line LnCaP; format: cell-based, human; details: MTT assay, average of three independent experiments
Procedure: (§3) This MTT assay was carried using human prostate cancer cell lines CWR22R, LAPC-4 and LnCap using Promega cell titer 96 nonradioactive cell proliferation kits. Cells were trypsinized and centrifuged at 1000 rpm for 5 minutes and the supernatant was aspirated. Cells were resuspended with HBSS to a concentration of 10^6/ml. Cell suspension was diluted in serum containing medium to plate 2000 cells/well/0.2 ml. Cell suspension was transferred to sterile solution basin. Cells were plated using multichannel pipette set at 200 μl and incubated overnight for attachment. One plate was prepared for day 0 MTT assay as follows: 100 μl of media was removed from each well using multichannel pipette and 15 μl of MTT reagent was added. Plates were incubated at 37° C. for 4 hrs. […] of STOP solution was added to each well and incubated at room temperature for 1 hour. Absorbance was measured at 570 and 650 nm on plate reader. All the media from the remaining plates were carefully removed and the cells were treated with the media containing drug. MTT assays were done on days 0, 3, 5 and 7. In the preliminary screening […] BPU sulfur analogs 6l, 6h, 6n, 7d and 8h were screened and their activity was compared with compound 1.
(§4) Compounds with significant inhibitory activity in pancreatic cancer cells were further evaluated against prostate cancer cell lines in the MTT assay, (Mosmann, T., J. Immunol. Methods 65:55-63 (1983)) and the results were compared to those for compound 1 (Table 3).

[3] = test system: Panc203; assay: MTT growth inhibition, pancreatic cell line Panc203; format: cell-based; details: MTT assay, 96 h treatment, average of three independent experiments
Procedure: as §1, §2

[4] = test system: MCF-7 cells; assay: Apoptosis of MCF-7 cells; format: cell-based; details: 48 hours
[5] = test system: HS766; assay: MTT growth inhibition, pancreatic cell line HS766; format: cell-based; details: MTT assay, 96 h treatment, average of three independent experiments
Procedure: as §1, §2

[6] = test system: Panc430; assay: MTT growth inhibition, pancreatic cell line Panc430; format: cell-based; details: MTT assay, 96 h treatment; average of three independent experiments
Procedure: as §1, §2

[7] = test system: Panc1; assay: MTT growth inhibition, pancreatic cell line Panc1; format: cell-based; details: MTT assay, 96 h treatment, average of three independent experiments
Procedure: as §1, §2

[8] = test system: LAPC-4; assay: MTT growth inhibition, prostate cancer cell line LAPC-4; format: cell-based, human; details: MTT assay, average of three independent experiments
Procedure: as §3, §4

[9] = test system: ASPC1; assay: MTT growth inhibition, pancreatic cell line ASPC1; format: cell-based; details: MTT assay, 96 h treatment, average of three independent experiments
Procedure: as §1, §2

[10] = test system: CWR22R; assay: MTT growth inhibition, prostate cancer cell line CWR22R; format: cell-based, human; details: MTT assay, average of three independent experiments
[11] = test system: Miapaca2; assay: MTT growth inhibition, pancreatic cell line Miapaca2; format: cell-based; details: MTT assay, 96 h treatment, average of three independent experiments
Procedure: as §1, §2

[12] = test system: tubulin; assay: Inhibition of [3H]colchicine binding; details: Tubulin 1 μM; [3H]colchicine and inhibitor at 5 μM

SMILES	IC50 [6] [µM]	IC50 ([1]; Homo sapiens, Panc1005) [µM]	IC50 ([2]; Homo sapiens, LNCaP) [µM]	IC50 ([3]; Homo sapiens, Panc203) [µM]	IC50 ([7]; Homo sapiens, PANC-1) [µM]	IC50 ([8]; Homo sapiens, LAPC4) [µM]	IC50 ([9]; Homo sapiens, ASPC1) [µM]	IC50 ([10]; Homo sapiens, 22Rv1) [µM]	IC50 ([11]; Homo sapiens, MIA PaCa-2) [µM]	IC50 ([5]; Homo sapiens, Hs 766) [µM]	other results
COc1cc([C@@H]2c3cc4c(cc3[C@H](O)[C@H]3COC(=O)[C@H]23)OCO4)cc(OC)c1OC [podophyllotoxin, reference compound]	–	–	–	–	–	–	–	–	–	–	colchicine binding (% ± SD), inhibition of [3H]colchicine binding [12]: 77 ± 8%
O=C(NC(=O)c1ccccc1[N+](=O)[O-])Nc1ccc(S(=O)(=O)c2ncc(Br)cn2)cc1 [Compound 8h, 1-[4-(5-Bromopyrimidine-2-sulfonyl)phenyl]-3-(2-nitrobenzoyl)-urea]	> 10	> 10	0.5	> 10	> 10	4	> 10	> 10	6.1	> 10	–
O=[N+]([O-])c1ccccc1OC=NOC=Nc1ccc(Sc2ncccn2)cc1 [Compound 6l]	–	–	0.5	–	–	0.6	–	5	–	–	–

Continued, in another order:

IC50 [6] [µM]	IC50 ([1]; Homo sapiens, Panc1005) [µM]	IC50 ([2]; Homo sapiens, LNCaP) [µM]	IC50 ([3]; Homo sapiens, Panc203) [µM]	IC50 ([7]; Homo sapiens, PANC-1) [µM]	IC50 ([8]; Homo sapiens, LAPC4) [µM]	IC50 ([9]; Homo sapiens, ASPC1) [µM]	IC50 ([10]; Homo sapiens, 22Rv1) [µM]	IC50 ([11]; Homo sapiens, MIA PaCa-2) [µM]	SMILES	IC50 ([5]; Homo sapiens, Hs 766) [µM]	other results
0.8	–	–	–	–	–	–	–	–	Cc1cc(NC(=O)NC(=O)c2ccccc2N(C)C)ccc1Oc1ncc(Br)cn1 [Compound 1, reference compound]	–	IC50 [1]: 5 µM; IC50 [2]: 0.5 µM; IC50 [3]: 0.95 µM; rate of apoptosis ([4]; 10 nM): 16.1%; rate of apoptosis ([4]; 30 nM): 19.5%; rate of apoptosis ([4]; 100 nM): 27.7%; IC50 [5]: 1 µM; IC50 [7]: 0.7 µM; IC50 [8]: 0.25 µM; IC50 [9]: 0.85 µM; IC50 [10]: 1 µM; IC50 [11]: 0.85 µM
7.5	> 10	> 10	> 10	9.5	6	10	> 10	10	Brc1cnc(Sc2ccc(N=CSN=COc3ccccc3)cc2)nc1 [Compound 6h]	8.5	–
